Experimental data taken from patent US4294843A, “Anti-protozoal oxadiazole derivatives” (Burroughs Wellcome Co., priority 1978, dated 1981).
Counter-ions that a name gives are not always drawn.

Legend:
P. berghei = assay: percentage inhibition of P. berghei (blood parasitaemia) in mice, seven oral doses; assay type: in vivo; settings: Plasmodium berghei, 96 h, parasitaemia on fourth day; for inhibition in vivo at 10 mg/kg: 7 × 10 mg/kg oral; for inhibition in vivo at 100 mg/kg: 7 × 100 mg/kg oral
Excerpt: Groups of five mice were inoculated intraperitoneally with the normal strain of P. berghei. The mice on test received seven oral doses of drug beginning on the afternoon of the day of infection then twice a day for the following three days. Blood parasitaemias were estimated on the fourth day and compared with those of the untreated controls.
The results are given in Table 1, the results being expressed as percentage inhibition of P. berghei.

[1] = LD50 in female rats, oral by gavage; settings: rat, in vivo, 10% w/v suspension in corn oil
Method: 1. The LD50 of the compound of Example 3, both as the free base and the hydrochloride salt was determined in female rats by standard techniques the compound being administered as a 10% w/v suspension in corn oil orally by gavage.

Row | Compound | inhibition in vivo at 10 mg/kg (P. berghei) | inhibition in vivo at 100 mg/kg (P. berghei) | LD50 [1]
1 | CN(C)c1ccccc1SCc1ncon1 [Example 1, 3-(2-Dimethylaminophenylthiomethyl)-1,2,4-oxadiazole] | 65% | 100% | –
2 | CN(C)c1ccccc1SCc1noc(-c2ccccc2)n1 [Example 2, 3-(2-Dimethylaminophenylthiomethyl)-5-phenyl-1,2,4-oxadiazole] | – | 83% | –
3 | Cl.Nc1ccccc1SCc1ncon1 [Example 3 - HCl salt, 3-(2-Aminophenylthiomethyl)-1,2,4-oxadiazole hydrochloride] | – | – | 63 mg/kg
4 | CNc1ccccc1SCc1ncon1 [Example 4, 3-(2-Methylaminophenylthiomethyl)-1,2,4-oxadiazole] | 67% | 97% | –
5 | Cc1ccc(SCc2ncon2)c(N)c1 [Example 6, 3-(2-Amino-4-methylphenylthiomethyl)-1,2,4-oxadiazole] | 55% | 99% | –
6 | Cc1ccc(N)c(SCc2ncon2)c1 [Example 7, 3-(2-Amino-5-methylphenylthiomethyl)-1,2,4-oxadiazole] | 46% | 99% | –
7 | Nc1cc(Cl)ccc1SCc1ncon1 [Example 8, 3-(2-Amino-4-chlorophenylthiomethyl)-1,2,4-oxadiazole] | 89% | 100% | –
8 | Nc1cccc(Cl)c1SCc1ncon1 [Example 9, 3-(2-Amino-6-chlorophenylthiomethyl)-1,2,4-oxadiazole] | 32% | 89.6% | –
9 | Nc1cc(Br)ccc1SCc1ncon1 [Example 10, 3-(2-Amino-4-bromophenylthiomethyl)-1,2,4-oxadiazole] | 85% | 99% | –
10 | Nc1ccccc1SCc1noc(-c2ccc(Cl)cc2)n1 [Example 11, 3-(2-Aminophenylthiomethyl)-5-(4-chlorophenyl)-1,2,4-oxadiazole] | 54% | 99% | –
11 | Nc1ccccc1SCc1noc(CSc2ccccc2N)n1 [Example 13, 3,5-Di-(2-aminophenylthiomethyl)-1,2,4-oxadiazole] | 77% | – | –
12 | Nc1ccccc1SCc1noc(-c2ccccc2)n1 [Example 14, 3-(2-Aminophenylthiomethyl)-5-phenyl-1,2,4-oxadiazole] | 77% | 100% | –
13 | Cc1nc(CSc2ccccc2N)no1 [Example 15, 3-(2-Aminophenylthiomethyl)-5-methyl-1,2,4-oxadiazole hydrochloride] | 4% | 86% | –
14 | Nc1cc(F)ccc1SCc1ncon1 [Example 16, 3-(2-Amino-4-fluorophenylthiomethyl)-1,2,4-oxadiazole] | 81% | 100% | –
15 | COc1ccc(SCc2ncon2)c(N(C)C)c1 [Example 17, 3-(2-Dimethylamino-4-methoxyphenylthiomethyl)-1,2,4-oxadiazole] | – | 62% | –
16 | CN(C)c1cc(Cl)ccc1SCc1ncon1 [Example 18, 3-(4-Chloro-2-dimethylaminophenylthiomethyl)-1,2,4-oxadiazole] | – | 95% | –
17 | CCOC(=O)Nc1ccccc1SCc1ncon1 [Example 19, 3-(2-Ethoxycarbonylaminophenylthiomethyl)-1,2,4-oxadiazole] | 52% | 99.9% | –
18 | COC(=O)Nc1ccccc1SCc1ncon1 [Example 20, 3-(2-methoxycarbonylaminophenylthiomethyl)-1,2,4-oxadiazole] | – | 97.5% | –
19 | O=C(Nc1ccccc1SCc1ncon1)OCc1ccccc1 [Example 21, 3-(2-Benzyloxycarbonylaminophenylthiomethyl)-1,2,4-oxadiazole] | 68% | 100% | –
20 | CC(=O)Nc1ccccc1SCc1ncon1 [Example 23, 3-(2-Acetylaminophenylthiomethyl)-1,2,4-oxadiazole] | 38% | 100% | –
21 | O=C(Nc1ccccc1SCc1ncon1)c1ccc(Cl)cc1 [Example 25, 3-[2-(4-chlorobenzamido)phenylthiomethyl]-1,2,4-oxadiazole] | 64% | 99.9% | –
22 | O=C(Nc1ccccc1SCc1ncon1)c1ccccc1 [Example 26, 3-(2-Benzamidophenythiomethyl)-1,2,4-oxadiazole] | 52% | – | –
23 | COc1ccc(C(=O)Nc2ccccc2SCc2ncon2)cc1 [Example 27, 3-[2-(4-Methoxybenzamido)phenylthiomethyl]-1,2,4-oxadiazole] | 73% | 85% | –

Row | Compound | inhibition in vivo at 10 mg/kg (P. berghei) | inhibition in vivo at 100 mg/kg (P. berghei) | LD50 [1]
24 | CC(C)(C)C(=O)Nc1ccccc1SCc1ncon1 [Example 28, 3-(2-Trimethylacetamidophenylthiomethyl)1,2,4-oxadiazole] | – | 53% | –
25 | O=C(Nc1ccccc1SCc1ncon1)c1ccco1 [Example 29, 3-(2-Furanoylaminophenylthiomethyl)1,2,4-oxadiazole] | 47% | 100% | –
26 | O=C(Nc1ccccc1SCc1ncon1)c1cccs1 [Example 30, 3-(Thiophene-2-carbonylaminophenylthiomethyl)1,2,4-oxadiazole] | 59% | – | –
27 | CS(=O)(=O)Nc1ccccc1SCc1ncon1 [Example 31, 3-(2-Methylsulphonamidophenylthiomethyl)-1,2,4-oxadiazole] | 33% | – | –
28 | Cc1ccc(S(=O)(=O)Nc2ccccc2SCc2ncon2)cc1 [Example 32, 3-[2-(p-toluenesulphonamido)phenylthiomethyl]-1,2,4-oxadiazole] | – | 43% | –
29 | S=C(Nc1ccccc1)Nc1ccccc1SCc1ncon1 [Example 33, N-[2-(1,2,4-oxadiazol-3-yl-methylthio)phenyl]-N^1-phenylthiourea] | 10% | – | –
30 | O=C(Nc1ccccc1SCc1ncon1)NC1CCCCC1 [Example 35] | – | 39% | –
31 | O=[N+]([O-])c1ccc(Oc2ccc(NC(=S)Nc3ccccc3SCc3ncon3)cc2)cc1 [Example 36, N-[2-(1,2,4-oxadiazol-3-yl-methylthio)phenyl]-N^1-4-(4-nitrophenyloxy)phenyl thiourea] | – | 19% | –
32 | O=[N+]([O-])c1ccc(Sc2ccc(NC(=S)Nc3ccccc3SCc3ncon3)cc2)cc1 [Example 37, N-[2-(1,2,4-oxadiazol-3-yl-methylthio)phenyl]-N^1-4-(4-nitrophenylthio)phenyl thiourea] | 50% | 22% | –
33 | COc1ccc(C=Nc2ccccc2SCc2ncon2)cc1OC [Example 38, 3-[2-(3,4-Dimethoxybenzylideneamino)phenylthiomethyl]-1,2,4-oxadiazole] | 9% | 36% | –
34 | COc1ccc(C=Nc2ccccc2SCc2ncon2)cc1 [Example 39, 3-[2-(4-Methoxybenzylideneamino)phenylthiomethyl]-1,2,4-oxadiazole] | 73% | 99.7% | –
35 | Clc1ccccc1C=Nc1ccccc1SCc1ncon1 [Example 40, 3-[2-(2-Chlorobenzylideneamino)phenylthiomethyl]-1,2,4-oxadiazole] | 82% | 100% | –
36 | COc1cc(C=Nc2ccccc2SCc2ncon2)cc(OC)c1OC [Example 41, 3-[2-(3,4,5-Trimethoxybenzylideneamino)phenylthiomethyl]-1,2,4-oxadiazole] | – | 100% | –
37 | Clc1ccc(CNc2ccccc2SCc2ncon2)cc1 [Example 42, 3-[2-(4-Chlorobenzylamino)phenylthiomethyl]1,2,4-oxadiazole] | 93% | 100% | –
38 | OC(CNc1ccccc1SCc1ncon1)COc1ccccc1 (centres unmarked) [Example 43, 2-Hydroxy-1-[2-(1,2,4-oxadiazol-3-ylmethylthio)anilino]-3-phenoxypropane] | 24% | 60% | –
39 | O=[N+]([O-])c1ccccc1SNc1ccccc1SCc1ncon1 [Example 44, 3-[2-(2-Nitrophenylsulphenylamino)phenyl]thiomethyl-1,2,4-oxadiazole] | – | 27% | –
40 | CCN(CC)c1ccccc1SCc1ncon1 [Example 45, 3-(2-Diethylaminophenylthiomethyl)-1,2,4-oxadiazole] | 84% | 100% | –
41 | CCN(C)c1ccccc1SCc1ncon1 [Example 46, 3-[2-(N-ethyl-N-methyl)aminophenylthiomethyl]1,2,4-oxadiazole] | – | 98% | –
42 | CN(C)c1ccccc1SCc1noc(CSc2ccc(Cl)cc2)n1 [Example 48, 5-(4-chlorophenylthiomethyl)-3-(2-dimethylaminophenylthiomethyl)-1,2,4-oxadiazole] | 22% | 88% | –
43 | Nc1ccccc1SCC1=NOCN1 [Example 51, 3-(2-Aminophenylthiomethyl)-4,5-dihydro-1,2,4-oxadiazole] | 63% | – | –
44 | Nc1cc(Cl)ccc1SCC1=NOCN1 [Example 52, 3-(2-Amino-4-chlorophenylthiomethyl)-4,5-dihydro-1,2,4-oxadiazole] | 95% | – | –
45 | CN(C)c1ccccc1SCC1=NOCN1 [Example 53, 3-(2-Dimethylaminophenylthiomethyl)-4,5-dihydro-1,2,4-oxadiazole] | 43% | – | –
46 | CN(C)c1ccccc1SCC(N)=NO [Example 56, 2-(2-Dimethylaminophenylthio)acetamidoxime] | 100% | – | –
